Key:
179 kinases (c-Met) = assay: Comprehensive kinase study (179 kinases); type: biochemical; details: evaluated at 200 nM
Description: Compound 1 was also evaluated at 200 nM in a comprehensive kinase study, which included 179 kinases. […] The mode of inhibition with respect to ATP concentration was evaluated using a MER kinase assay.

MER = target: T1, MER (Homo sapiens, UniProt Q12866); assay: Phospho-MER inhibition assay in G361 cells (ELISA); type: cell-based; set-up: G361 cells, a melanoma cell line expressing high level of MER kinase; endogenous in cells; host or cells: G361; details: G361 melanoma cells, N=2 (FIG. 3); read-out: IC50, MER phosphorylation induced by MAB8912
T1 sequence (Q12866 21-999): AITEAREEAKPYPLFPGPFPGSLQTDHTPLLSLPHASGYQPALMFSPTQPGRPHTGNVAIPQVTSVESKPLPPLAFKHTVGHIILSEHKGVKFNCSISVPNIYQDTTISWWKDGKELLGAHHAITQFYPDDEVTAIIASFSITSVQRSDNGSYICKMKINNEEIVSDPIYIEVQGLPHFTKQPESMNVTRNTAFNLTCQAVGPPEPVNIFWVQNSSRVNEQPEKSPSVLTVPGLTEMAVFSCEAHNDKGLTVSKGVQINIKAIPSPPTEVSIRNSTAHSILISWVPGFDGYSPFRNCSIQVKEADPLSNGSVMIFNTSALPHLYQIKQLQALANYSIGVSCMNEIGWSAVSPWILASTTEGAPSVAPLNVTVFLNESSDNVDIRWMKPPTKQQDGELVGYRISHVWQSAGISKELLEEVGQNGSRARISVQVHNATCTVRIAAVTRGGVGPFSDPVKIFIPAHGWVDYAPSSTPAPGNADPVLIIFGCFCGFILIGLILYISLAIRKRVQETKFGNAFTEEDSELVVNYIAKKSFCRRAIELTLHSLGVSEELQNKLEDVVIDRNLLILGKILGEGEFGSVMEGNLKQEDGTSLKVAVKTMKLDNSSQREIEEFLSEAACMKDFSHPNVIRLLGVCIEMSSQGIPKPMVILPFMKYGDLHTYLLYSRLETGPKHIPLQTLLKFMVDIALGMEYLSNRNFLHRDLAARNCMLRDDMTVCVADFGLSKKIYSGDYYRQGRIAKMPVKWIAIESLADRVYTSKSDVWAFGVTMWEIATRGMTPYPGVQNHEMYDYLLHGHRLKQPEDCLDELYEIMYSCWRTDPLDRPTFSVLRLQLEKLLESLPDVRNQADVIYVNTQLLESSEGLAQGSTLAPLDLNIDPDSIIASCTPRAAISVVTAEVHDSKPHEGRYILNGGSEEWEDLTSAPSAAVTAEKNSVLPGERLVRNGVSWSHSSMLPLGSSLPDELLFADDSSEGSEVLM
Description: The potency of Compound 1 in blocking MER auto-phosphorylation was evaluated in G361 cells, a melanoma cell line expressing high level of MER kinase.
Newly thawed G361 cells were allowed to recover for three passages before use, and only cells within 20 passages after thawing were used in the assay. Cells were kept under nonconfluent conditions and used in log-phase growth. Two mL of 1×10^6 cells/mL (2×10^6 cells/well) G361 cells were added to a six-well tissue-culture plates (Corning Incorporated; #3961) for 2 days. At the time of the assay, 1 mL of medium was added to each well. […] The optical density of the plate was measured using a Molecular Devices SpectraMax Plus microplate reader (Molecular Devices, San Jose, Calif.) at 450 nm with wavelength correction at 540 nm. Absorbance of the standards was plotted versus the concentration to generate a standard curve using four-parameter algorithm curve fitting software (SOFTmax PRO application, Molecular Devices). pMER concentrations for unknown samples were determined by extrapolation from the standard curve. IC50 values were calculated by GraphPad Prism 7.0 using a nonlinear regression sigmoidal dose-response curve with variable slope.

CC(C)C(=O)N1CCC(c2cc(-c3ccc(NC(=O)c4cn(C(C)C)c(=O)n(-c5ccccn5)c4=O)cc3)c3c(N)ncnn23)CC1 [Compound 1, N-(4-(4-Amino-7-(1-isobutyrylpiperidin-4-yl)pyrrolo[1,2-f][1,2,4]triazin-5-yl)phenyl)-1-isopropyl-2,4-dioxo-3-(pyridin-2-yl)-1,2,3,4-tetrahydropyrimidine-5-carboxamide]
inhibition of other kinases (179 kinases (c-Met)): did not inhibit any other kinases
selectivity for AXL and MER compared to c-Met (179 kinases (c-Met)): approximately 60 fold
IC50 (MER): 8.3 ± 3.1 nM
